For 7 cell lines, relative viability results are on record in the supplement of paper PMC10307832.

Test in all cases: relative viability (nuclei count vs DMSO), 5 days (fraction); higher = more cells survive
Compound in test [1]: CC1=C(C(=NN1)C)CC2=C(C3=C(S2)N(C(=O)N(C3=O)C)CC(C)C)C(=O)N4C[C@@H](CO4)O + COc1cccc2cc(-c3nc([C@H]4CC[C@H](C(=O)O)CC4)n4ncnc(N)c34)[nH]c12 [OSI-027] (partner 0.5 µM)
A digest of the protocol:
(§1)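 Values are medians from duplicate plates. Each reflects relative viability, defined as the nuclei count of treated wells over that of vehicle wells. Lung cancer cell lines in 1536-well plates were pin-tool dosed one day after seeding with one drug alone or with a fixed anchor-drug dose plus five library-drug doses (not always all listed) in √10 steps, then fixed, stained and imaged at 4× after 5 days.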

Compound in test [2]: CC1=C(C(=NN1)C)CC2=C(C3=C(S2)N(C(=O)N(C3=O)C)CC(C)C)C(=O)N4C[C@@H](CO4)O + Cc1cc(Nc2cc(N3CCN(C)CC3)nc(Sc3ccc(NC(=O)C4CC4)cc3)n2)n[nH]1 [Tozasertib] (partner 0.1 µM)
A digest of the protocol:
as §1

Compound in test [3]: CC1=C(C(=NN1)C)CC2=C(C3=C(S2)N(C(=O)N(C3=O)C)CC(C)C)C(=O)N4C[C@@H](CO4)O + NC(=O)Nc1cc(-c2cccc(F)c2)sc1C(=O)N[C@H]1CCCNC1 [AZD7762] (partner 0.2 µM)
The method, boiled down: as §1

Compound in the test “IDH-C35 + Alpelisib”: Cc1ccccc1C(C(=O)NC1CCCCC1)N(C(=O)Cn1ccnc1C)c1cccc(F)c1 [IDH-C35] + Cc1nc(NC(=O)N2CCC[C@H]2C(N)=O)sc1-c1ccnc(C(C)(C)C(F)(F)F)c1 [Alpelisib] (partner 2 µM)
A digest of the protocol:
as §1

As for NCI-H2405, the relative viability in test [1] (first compound 0.0025 µM) was 0.703; in test [1] (first compound 0.007906 µM), 0.645; in test [1] (first compound 0.07906 µM), 0.62; in test [1] (first compound 0.25 µM) it was 0.661; in test [2] (first compound 0.0025 µM), 0.697; in test [2] (first compound 0.007906 µM), 0.729. Moreover, the relative viability was determined as 0.577 in test [2] (first compound 0.07906 µM); 0.676 in test [2] (first compound 0.25 µM); 0.793 in test [3] (first compound 0.0025 µM); 0.778 in test [3] (first compound 0.007906 µM); 0.573 in test [3] (first compound 0.025 µM); 0.69 in test [3] (first compound 0.07906 µM). The relative viability turned out to be 0.678 in test [3] (first compound 0.25 µM); 0.927 with IDH-C35 + Alpelisib (first compound 0.08 µM); 0.815 with IDH-C35 + Alpelisib (first compound 0.253 µM); 0.777 with IDH-C35 + Alpelisib (first compound 0.8 µM); 0.736 with IDH-C35 + Alpelisib (first compound 8 µM).

NCI-H322M: the relative viability in test [1] (first compound 0.0025 µM) was 0.529; in test [1] (first compound 0.007906 µM), 0.539; in test [1] (first compound 0.025 µM), 0.483; in test [1] (first compound 0.07906 µM) it was 0.64; in test [1] (first compound 0.25 µM), 0.5; in test [2] (first compound 0.0025 µM), 0.532. For the same cell line, the relative viability in test [2] (first compound 0.007906 µM) is 0.485; in test [2] (first compound 0.025 µM), 0.454; in test [2] (first compound 0.07906 µM) it was 0.495; in test [2] (first compound 0.25 µM), 0.461; in test [3] (first compound 0.0025 µM), 0.655; in test [3] (first compound 0.007906 µM), 0.57. The relative viability came to 0.71 in test [3] (first compound 0.025 µM); 0.573 in test [3] (first compound 0.07906 µM); 0.662 in test [3] (first compound 0.25 µM); 0.878 with IDH-C35 + Alpelisib (first compound 0.08 µM); 0.818 with IDH-C35 + Alpelisib (first compound 0.253 µM); 0.743 with IDH-C35 + Alpelisib (first compound 0.8 µM). The relative viability was 0.806 with IDH-C35 + Alpelisib (first compound 2.53 µM) and 0.837 with IDH-C35 + Alpelisib (first compound 8 µM).

Take NCI-H2170: the relative viability turned out to be 0.736 in test [1] (first compound 0.0025 µM); 0.792 in test [1] (first compound 0.007906 µM); 0.687 in test [1] (first compound 0.025 µM); 0.726 in test [1] (first compound 0.07906 µM); 0.681 in test [1] (first compound 0.25 µM); 0.67 in test [2] (first compound 0.0025 µM). Moreover, the relative viability in test [2] (first compound 0.007906 µM) was 0.734; in test [2] (first compound 0.025 µM), 0.736; in test [2] (first compound 0.07906 µM), 0.599; in test [2] (first compound 0.25 µM), 0.8; in test [3] (first compound 0.0025 µM), 0.899; in test [3] (first compound 0.007906 µM) it was 0.925. Further, the relative viability in test [3] (first compound 0.025 µM) is 0.854; in test [3] (first compound 0.07906 µM), 0.895; in test [3] (first compound 0.25 µM), 0.906; with IDH-C35 + Alpelisib (first compound 0.08 µM) it was 0.798; with IDH-C35 + Alpelisib (first compound 0.253 µM), 0.776; with IDH-C35 + Alpelisib (first compound 0.8 µM), 0.832. The relative viability with IDH-C35 + Alpelisib (first compound 2.53 µM) was found to be 0.795; with IDH-C35 + Alpelisib (first compound 8 µM), 0.788.

As for NCI-H1395, the relative viability turned out to be 0.658 in test [1] (first compound 0.0025 µM); 0.603 in test [1] (first compound 0.007906 µM); 0.409 in test [1] (first compound 0.025 µM); 0.578 in test [1] (first compound 0.07906 µM); 0.58 in test [1] (first compound 0.25 µM); 0.757 in test [2] (first compound 0.0025 µM). Also, the relative viability amounted to 0.681 in test [2] (first compound 0.007906 µM); 0.581 in test [2] (first compound 0.025 µM); 0.592 in test [2] (first compound 0.07906 µM); 0.599 in test [2] (first compound 0.25 µM); 0.416 in test [3] (first compound 0.0025 µM); 0.4 in test [3] (first compound 0.007906 µM). Further, the relative viability in test [3] (first compound 0.025 µM) was found to be 0.4; in test [3] (first compound 0.07906 µM), 0.356; in test [3] (first compound 0.25 µM), 0.389; with IDH-C35 + Alpelisib (first compound 0.08 µM), 1.12; in the test with IDH-C35 + Alpelisib (first compound 0.253 µM), 0.889; with IDH-C35 + Alpelisib (first compound 0.8 µM), 1.09. Further, the relative viability with IDH-C35 + Alpelisib (first compound 2.53 µM) amounted to 1.04; with IDH-C35 + Alpelisib (first compound 8 µM) it was 1.05.

With NCI-H358, the relative viability in test [1] (first compound 0.0025 µM) worked out at 0.679; in test [1] (first compound 0.007906 µM), 0.724; in test [1] (first compound 0.025 µM) it was 0.845; in test [1] (first compound 0.07906 µM), 0.895; in test [1] (first compound 0.25 µM), 0.854; in test [2] (first compound 0.0025 µM), 0.12. For the same cell line, the relative viability in test [2] (first compound 0.007906 µM) was 0.0943; in test [2] (first compound 0.025 µM) it was 0.0965; in test [2] (first compound 0.07906 µM), 0.11; in test [2] (first compound 0.25 µM), 0.112; in test [3] (first compound 0.0025 µM), 0.571; in test [3] (first compound 0.007906 µM), 0.623. For the same cell line, the relative viability in test [3] (first compound 0.025 µM) is 0.431; in test [3] (first compound 0.07906 µM), 0.643; in test [3] (first compound 0.25 µM), 0.594; with IDH-C35 + Alpelisib (first compound 0.08 µM) it was 0.916; with IDH-C35 + Alpelisib (first compound 0.253 µM) it was 0.871; in the test with IDH-C35 + Alpelisib (first compound 0.8 µM), 0.746. The relative viability was 0.857 with IDH-C35 + Alpelisib (first compound 2.53 µM) and 0.915 in the test with IDH-C35 + Alpelisib (first compound 8 µM).

On to NCI-H838, for which the relative viability came out at 0.396 in test [1] (first compound 0.0025 µM); 0.451 in test [1] (first compound 0.007906 µM); 0.409 in test [1] (first compound 0.025 µM); 0.384 in test [1] (first compound 0.07906 µM); 0.387 in test [1] (first compound 0.25 µM); 0.268 in test [2] (first compound 0.0025 µM). Besides, the relative viability in test [2] (first compound 0.007906 µM) stood at 0.25; in test [2] (first compound 0.025 µM), 0.212; in test [2] (first compound 0.07906 µM), 0.22; in test [2] (first compound 0.25 µM) it was 0.242; in test [3] (first compound 0.0025 µM), 0.908; in test [3] (first compound 0.007906 µM), 0.859. Further, the relative viability in test [3] (first compound 0.025 µM) came out at 0.884; in test [3] (first compound 0.07906 µM) it was 0.835; in test [3] (first compound 0.25 µM), 0.896; in the test with IDH-C35 + Alpelisib (first compound 0.08 µM), 1.03; with IDH-C35 + Alpelisib (first compound 0.253 µM), 0.92; with IDH-C35 + Alpelisib (first compound 0.8 µM) it was 0.951. Moreover, the relative viability with IDH-C35 + Alpelisib (first compound 2.53 µM) was 0.93; with IDH-C35 + Alpelisib (first compound 8 µM), 0.949.

As to CAL-12T, the relative viability in test [1] (first compound 0.0025 µM) was found to be 0.746; in test [1] (first compound 0.007906 µM), 0.928; in test [1] (first compound 0.025 µM), 0.538; in test [1] (first compound 0.07906 µM), 0.661; in test [1] (first compound 0.25 µM) it was 0.806; in test [2] (first compound 0.0025 µM), 0.334. The relative viability in test [2] (first compound 0.007906 µM) was determined as 0.315; in test [2] (first compound 0.025 µM), 0.366; in test [2] (first compound 0.07906 µM), 0.332; in test [2] (first compound 0.25 µM) it was 0.304; in test [3] (first compound 0.0025 µM), 0.632; in test [3] (first compound 0.007906 µM), 0.578. The relative viability in test [3] (first compound 0.025 µM) was found to be 0.647; in test [3] (first compound 0.07906 µM) it was 0.6; in test [3] (first compound 0.25 µM), 0.566; with IDH-C35 + Alpelisib (first compound 0.08 µM) it was 1.26; in the test with IDH-C35 + Alpelisib (first compound 0.253 µM), 1.26; with IDH-C35 + Alpelisib (first compound 0.8 µM) it was 1.11. For the same cell line, the relative viability amounted to 1.14 with IDH-C35 + Alpelisib (first compound 2.53 µM) and 1.1 in the test with IDH-C35 + Alpelisib (first compound 8 µM).
